From US7514411B2, “Acylated benzylmaltosides as inhibitors of smooth muscle cell proliferation” (Wyeth, priority 1998, dated 2009)
Where a name gives a salt, the structure may show the parent alone.

Test system: Porcine Smooth Muscle Cell
Assay: Effects of compounds on cell proliferation using 3H thymidine incorporation
Format: cell-based
Conditions: @ 50 μM
Experimental: The compounds of this invention are useful as antiproliferative agents. The following procedures show the evaluation of representative compounds of this invention in standard pharmacological test procedure which measured ability of the evaluated compound to inhibit smooth muscle cell proliferation
Effects of Compounds On Cell Proliferation Using ^3H Thymidine Incorporation
Human and porcine smooth muscle cells were tested in early passage (generally passage 3-7) at sub-confluent conditions. Cultures were grown in 16 mm (24 well) multi-well culture dishes in medium 199 supplemented with 10% fetal bovine serum and 2% antibiotic/antimycotic. At sub-confluence, the cells were placed in a defined serum free medium (AIM-V; Gibco) for 24-48 h prior to initiating the experimental protocol.
Compounds were added to each well at 50 fold dilution (20 μL/well) and the plates were incubated for 24-36 h at 37° C. in 5% CO2. Compounds were initially dissolved in 50% ethanol and serially diluted into media. Compounds were routinely evaluated at concentrations from 1 to 100 μM. As a control, grade II porcine intestinal mucosal heparin (sodium salt) was routinely evaluated in all cell preparations at concentrations from 0.1 to 100 μg/mL.
At the completion of the test procedure, plates were placed on ice, washed three times with ice cold phosphate buffered saline (PBS) and incubated in ice cold 10% trichloroacetic acid (TCA) got 30 min to remove acid soluble proteins. Solution was transferred to scintillation vials containing 0.4 N HCl (500 μL/vial to neutralize NaOH) and each well was rinsed two times with water (500 μL) for a total volume of 2 mL/vial.
Data was obtained, in triplicate, for both control and experimental samples. Control (100%) data was obtained from maximally stimulated cells, as the result of growth factor or serum stimulation. Experimental data was obtained from cells maximally stimulated with growth factor or serum and treated with compound. Data are expressed as an IC50 or percent inhibition in Table I below.

SMILES	Porcine Smooth Muscle Cell Antiproliferation percent inhibition
O=[N+]([O-])c1cc(CS[C@@H]2O[C@H](CO)[C@@H](O[C@H]3O[C@H](CO)[C@@H](O)[C@H](O)[C@H]3O)[C@H](O)[C@H]2O)ccc1Cl [Example 18, (4-Chloro-3-nitro-benzyl)-1-deoxy-1-thio-β-D-maltoside]	25% @ 50
CC(=O)Nc1cc(CSC2OC(CO)C(OC3OC(CO)C(O)C(O)C3O)C(O)C2O)ccc1Cl (stereo not drawn) [Example 19]	28% @ 50

Same assay, conditions: @ 100 μM

SMILES	Porcine Smooth Muscle Cell Antiproliferation percent inhibition
Cc1ccc(CO[C@@H]2O[C@H](Cn3cnc([N+](=O)[O-])c3)[C@@H](O[C@H]3O[C@H](Cn4cnc([N+](=O)[O-])c4)[C@@H](O)[C@H](O)[C@H]3O)[C@H](O)[C@H]2O)cc1[N+](=O)[O-] [Example 22, 5-{[6,6′-Dideoxy-6,6′-bis(4-nitro-imidazol-1-yl)-β-maltosyl]-oxy-methyl}-2-methyl-1-nitrobenzene]	23% @ 100

Same assay, conditions: @ 500 μM

SMILES	Porcine Smooth Muscle Cell Antiproliferation percent inhibition
CC(=O)Nc1cc(COC2OC(CO)C(OC3OC(CO)C(O)C(O)C3O)C(O)C2O)ccc1Cl [Example 9, N-[2-Chloro-5-(β-D-maltosyl-oxymethyl)-phenyl]-acetamide]	0% @ 500

Same assay, conditions: Sus scrofa; @ 50 μM; read-out: Porcine Smooth Muscle Cell Antiproliferation percent inhibition

SMILES	inhibition at 50 µM
O=C(Nc1cc(CO[C@@H]2O[C@H](CO)[C@@H](O[C@H]3O[C@H](CO)[C@@H](O)[C@H](O)[C@H]3O)[C@H](O)[C@H]2O)ccc1Cl)c1cccnc1 [Example 16, N-[2-Chloro-5-[[(4-O-α-D-glucopyranosyl-β-D-glucopyranosyl)oxy]methyl]phenyl]-3-pyridinecarboxamide]	18%

Same assay, conditions: serum/growth factor stimulated cells, 3H thymidine incorporation, 24-36 h; read-out: Porcine Smooth Muscle Cell Antiproliferation IC50

SMILES	IC50
CC(=O)OC[C@H]1O[C@H](O[C@H]2[C@H](OC(C)=O)[C@@H](OC(C)=O)[C@H](OCc3ccc(Cl)c([N+](=O)[O-])c3)O[C@@H]2COC(C)=O)[C@H](OC(C)=O)[C@@H](OC(C)=O)[C@@H]1OC(C)=O [Example 1, 4-Chloro-3-nitro-benzyl-β-D-maltoside heptaacetate]	850 nM
CC(=O)OC[C@H]1O[C@H](O[C@H]2[C@H](OC(C)=O)[C@@H](OC(C)=O)[C@H](OCc3ccc(Cl)c(NC(=O)[C@@H](N)CC(=O)OC(C)(C)C)c3)O[C@@H]2COC(C)=O)[C@H](OC(C)=O)[C@@H](OC(C)=O)[C@@H]1OC(C)=O [Example 2, N-{5-[(Hepta-O-acetyl-β-D-maltosyloxy)-methyl]-2-chloro-phenyl}-L-aspartamide-γ-tert-butyl ester]	4610 nM
CC(=O)OC[C@H]1O[C@H](O[C@H]2[C@H](OC(C)=O)[C@@H](OC(C)=O)[C@H](OCc3ccc(Cl)c(NC(=O)[C@H](C)NC(=O)OCC4c5ccccc5-c5ccccc54)c3)O[C@@H]2COC(C)=O)[C@H](OC(C)=O)[C@@H](OC(C)=O)[C@@H]1OC(C)=O [Example 3, N-{2-Chloro-5-[(2,2′,3,3′,4′,6,6′)-hepta-O-acetyl-β-D-maltosyl-oxymethyl]-phenyl}-(9H-fluoren-9-ylmethoxycarbonyl)-L-alaninamide]	1710 nM
CC(=O)OC[C@H]1O[C@H](O[C@H]2[C@H](OC(C)=O)[C@@H](OC(C)=O)[C@H](OCc3ccc(Cl)c(NC(=O)c4ccc(C(=O)c5ccccc5)cc4)c3)O[C@@H]2COC(C)=O)[C@H](OC(C)=O)[C@@H](OC(C)=O)[C@@H]1OC(C)=O [Example 4, 4-Benzoyl-N-{2-chloro-5-[(2,2′,3,3′,4′,6,6′-hepta-O-acetyl-β-D-maltosyl)-oxy-methyl]-phenyl}-benzamide]	164 nM
CC(=O)OC[C@H]1O[C@@H](SCc2ccc(Cl)c([N+](=O)[O-])c2)[C@H](OC(C)=O)[C@@H](OC(C)=O)[C@@H]1O[C@H]1O[C@H](COC(C)=O)[C@@H](OC(C)=O)[C@H](OC(C)=O)[C@H]1OC(C)=O [Example 5, (4-Chloro-3-nitro-benzyl)-hepta-O-acetyl-1-thio-β-D-maltoside]	1140 nM
CC(=O)OC[C@H]1O[C@@H](SCc2ccc(Cl)c(N)c2)[C@H](OC(C)=O)[C@@H](OC(C)=O)[C@@H]1O[C@H]1O[C@H](COC(C)=O)[C@@H](OC(C)=O)[C@H](OC(C)=O)[C@H]1OC(C)=O [Example 6, (3-Amino-4-chloro-benzyl) hepta-O-acetyl-1-thio-β-D-maltoside]	667 nM
CC(=O)Nc1cc(CS[C@@H]2O[C@H](COC(C)=O)[C@@H](O[C@H]3O[C@H](COC(C)=O)[C@@H](OC(C)=O)[C@H](OC(C)=O)[C@H]3OC(C)=O)[C@H](OC(C)=O)[C@H]2OC(C)=O)ccc1Cl [Example 7]	7970 nM
CC(=O)OC[C@H]1O[C@H](O[C@H]2[C@H](OC(C)=O)[C@@H](OC(C)=O)[C@H](OCc3ccc(C#N)c([N+](=O)[O-])c3)O[C@@H]2COC(C)=O)[C@H](OC(C)=O)[C@@H](OC(C)=O)[C@@H]1OC(C)=O [Example 8, 5-[(Hepta-O-acetyl-β-D-maltosyl)-oxy-methyl]-2-cyano-1-nitrobenzene]	2050 nM
CC(=O)Nc1cc(CO[C@@H]2O[C@H](CO[Si](C)(C)C(C)(C)C)[C@@H](O[C@H]3O[C@H](CO[Si](C)(C)C(C)(C)C)[C@@H](O)[C@H](O)[C@H]3O)[C@H](O)[C@H]2O)ccc1C [Example 10, N-{5-[6,6′-Di-O-(tert-butyl-dimethyl-silyl)-β-D-maltosyloxy-methyl]-2-methyl-phenyl}-acetamide]	6100 nM
CC(=O)Nc1cc(CO[C@@H]2O[C@H](CO[Si](C)(C)C(C)(C)C)[C@@H](O[C@H]3O[C@H](CO[Si](C)(C)C(C)(C)C)[C@@H](O)[C@H](O)[C@H]3O)[C@H](O)[C@H]2O)ccc1Cl [Example 11, N-{2-Chloro-5-[6,6′-di-O-(tert-butyl-dimethyl-silvl)-β-D-maltosyloxy-methyl]-phenyl}-acetamide]	3900 nM
CC(=O)Nc1cc(CO[C@@H]2O[C@H](COC(=O)c3ccccc3)[C@@H](O[C@H]3O[C@H](COC(=O)c4ccccc4)[C@@H](O)[C@H](O)[C@H]3O)[C@H](O)[C@H]2O)ccc1Cl [Example 12, N-{2-Chloro-5-[([6,6′-di-O-benzoyl-β-D-maltosyl]oxy)methyl]phenyl}-acetamide]	390 to 2200 nM
CC(=O)Nc1cc(CO[C@@H]2O[C@H](COC(=O)c3ccccc3)[C@@H](O[C@H]3O[C@H](COC(=O)c4ccccc4)[C@@H](OC(C)=O)[C@H](OC(C)=O)[C@H]3OC(C)=O)[C@H](OC(C)=O)[C@H]2OC(C)=O)ccc1Cl [Example 13, N-{2-Chloro-5-[([6,6′-di-O-benzoyl-2,2′,3,3′,4′-penta-acetyl-β-D-maltosyl]oxy)methyl]phenyl}-acetamide]	360 nM
O=C(OC[C@H]1O[C@H](O[C@H]2[C@H](O)[C@@H](O)[C@H](OCc3ccc(Cl)c([N+](=O)[O-])c3)O[C@@H]2COC(=O)c2cccnc2)[C@H](O)[C@@H](O)[C@@H]1O)c1cccnc1 [Example 14, (4-Chloro-3-nitrophenyl)methyl-4-O-[6-O-(3-pyridinylcarbonyl)-α-D-glucopyranosyl]-β-D-glucopyranoside-6-(3-pyridinecarboxylate)]	6560 nM
O=C(OC[C@H]1O[C@H](O[C@H]2[C@H](O)[C@@H](O)[C@H](OCc3ccc(Cl)c([N+](=O)[O-])c3)O[C@@H]2CO)[C@H](O)[C@@H](O)[C@@H]1O)c1cccnc1 [Example 15, (4-Chloro-3-nitrophenyl)methyl-4-O-[6-O-(3-pyridinylcarbonyl)-α-D-glucopyranosyl]-β-D-glucopyranoside]	73200 nM
O=C(Nc1cc(COC2OC(COC(=O)c3ccccc3)C(OC3OC(CO)C(O)C(O)C3O)C(O)C2O)ccc1Cl)c1cccnc1 (stereo not drawn) [Example 17, Benzoic acid 6-{4-chloro-3-[(pyridine-3-carbonyl)-amino]-benzyloxy}-4,5-dihydoxy-3-(3,4,5-trihydroxy-6-hydroxymethyl-tetrahydro-pyran-2-yloxy)-tetrahydro-pyran-2-ylmethyl ester hydrochloride]	245 nM
Cc1ccc(S(=O)(=O)OC[C@H]2O[C@H](O[C@H]3[C@H](O)[C@@H](O)[C@H](OCc4ccc(C)c([N+](=O)[O-])c4)O[C@@H]3COS(=O)(=O)c3ccc(C)cc3)[C@H](O)[C@@H](O)[C@@H]2O)cc1 [Example 20, 5-{[6,6′-Bis-O-(4-toluenesulfonyl)-β-maltosyl]-oxy-methyl}-2-methyl-1-nitrobenzene]	740 nM
CC(=O)O[C@@H]1[C@@H](OC(C)=O)[C@@H](O[C@H]2[C@H](OC(C)=O)[C@@H](OC(C)=O)[C@H](OCc3ccc(C)c([N+](=O)[O-])c3)O[C@@H]2COS(=O)(=O)c2ccc(C)cc2)O[C@H](COS(=O)(=O)c2ccc(C)cc2)[C@H]1OC(C)=O [Example 21, 5-{[2,2′,3,3′,4′-Penta-O-acetyl-6,6′-bis-O-(4-toluenesulfonyl)-β-maltosyl]-oxy-methyl}-2-methyl-1-nitrobenzene]	67400 nM
CC(=O)O[C@@H]1[C@@H](OC(C)=O)[C@@H](O[C@H]2[C@H](OC(C)=O)[C@@H](OC(C)=O)[C@H](OCc3ccc(C)c([N+](=O)[O-])c3)O[C@@H]2Cn2cnc([N+](=O)[O-])c2)O[C@H](Cn2cnc([N+](=O)[O-])c2)[C@H]1OC(C)=O [Example 23, 5-{[2,2′,3,3′,4′-Penta-O-acetyl-6,6′-dideoxy-6,6′-bis(4-nitro-imidazol-1-yl)-β-maltosyl]-oxy-methyl}-2-methyl-1-nitrobenzene]	4700 nM

Test system: not given
Assay: not given
Conditions: not given

melting point	SMILES
> 106 °C (dec.)	O=C(Nc1cc(CO[C@@H]2O[C@H](CO)[C@@H](O[C@H]3O[C@H](CO)[C@@H](O)[C@H](O)[C@H]3O)[C@H](O)[C@H]2O)ccc1Cl)c1cccnc1 [Example 16, N-[2-Chloro-5-[[(4-O-α-D-glucopyranosyl-β-D-glucopyranosyl)oxy]methyl]phenyl]-3-pyridinecarboxamide]
